{
  "source": "patent US20180202936A1",
  "about": "“Modified Hydrocyanine Dyes for the Detection of Reactive Oxygen Species” (Life Technologies Corporation, priority 2010, published 2018)",
  "format_in_all_cases": "cell-based",
  "key": {"RAW macrophages": {"tested_on": "RAW macrophages", "assay": "Specificity of ROS signal: NADPH oxidase inhibitor in LPS-treated RAW cells (Example 8)", "conditions": "500 ng/mL LPS; Far Red ROS Sensor readout", "description": "(§1) BPAE cells or RAW macrophages were plated in 96-well plates. BPAE cells were treated with or without 100 μM Menadione for 1 h. 100 μM of superoxide scavenger, MnTBAP was added to some of the control and menadione-treated wells for the last 30 min of incubation. RAW cells were treated with or without 500 ng/mL of Lipopolysachharide (LPS) with or without Diphenylenelodinium (DPI), an NADPH oxidase inhibitor."}, "Live Jurkat cells": {"tested_on": "Live Jurkat cells", "assay": "Flow cytometry of ROS formation in live Jurkat cells (Example 4)", "conditions": "100 μM Menadione or 500 nM PMA, 1 hr; 5 μM Far Red ROS Sensor 30 min; 635 nm excitation, emission 650-670 nm", "description": "Live Jurkat cells were treated with or without either 100 μM Menadione or 500 nM phorbol myristate acetate (PMA) for 1 hr. The cells were stained with 5 μM Far Red ROS Sensor and Hoechst 33342 for 30 mins. The cells were washed 3 times with PBS and then analyzed at approximately 400 events per second on a BD® LSR II flow cytometer (Beckton Dickinson, Franklin Lakes, N.J.) with 635 nm laser excitation and fluorescence emission collected from 650-670 nm."}, "BPAE cells": {"tested_on": "BPAE cells", "assay": "Specificity of ROS signal: superoxide scavenger in menadione-treated BPAE cells (Example 8)", "conditions": "100 μM MnTBAP, last 30 min; 100 μM Menadione 1 h; Far Red ROS Sensor readout", "description": "as §1"}, "HepG2 cells": {"tested_on": "HepG2 cells", "assay": "Multiplexed measurement of oxidative stress, cytotoxicity and apoptosis in HepG2 cells (Example 10)", "conditions": "50 μM Nefazodone 24 h", "description": "For the last 30 min of Nefazodone treatment, the cells were either stained with 5 μM Far Red ROS Sensor and 20 nM Image-IT® DEAD Green™ viability stain (Life Technologies Corp., Carlsbad, Calif.), FIG. 10a) or 5 μM Far Red ROS Sensor and 5 μM fluorogenic CaspaGreen caspase substrate (FIG. 10b). […] Image-iT® DEAD Green™ measures plasma membrane permeability, a marker for cytotoxicity."}},
  "data": [
    {"smiles": "c1ccc2c(c1)[I+]c1ccccc1-2", "note": "[DPI, Diphenylenelodinium]", "values": [
      {"measurement": "effect on ROS caused by LPS", "setting": "RAW macrophages", "result": "inhibited ROS"}
    ]},
    {"smiles": "CC1=CC(=O)c2ccccc2C1=O", "note": "[Menadione]", "values": [
      {"measurement": "ROS formation after treatment", "setting": "Live Jurkat cells", "result": "increase in ROS formation"}
    ]},
    {"smiles": "O=C(O)c1ccc(/C2=C3\\C=CC(=N3)/C(c3ccc(C(=O)O)cc3)=c3/cc/c4[n]3[Mn]([Cl])[n]3c2ccc3/C(c2ccc(C(=O)O)cc2)=C2/C=CC(=N2)\\C=4c2ccc(C(=O)O)cc2)cc1", "note": "[MnTBAP]", "values": [
      {"measurement": "effect on ROS caused by Menadione", "setting": "BPAE cells", "result": "inhibited ROS"}
    ]},
    {"smiles": "CCc1nn(CCCN2CCN(c3cccc(Cl)c3)CC2)c(=O)n1CCOc1ccccc1", "note": "[Nefazodone]", "values": [
      {"measurement": "apoptosis (fluorogenic CaspaGreen caspase substrate)", "setting": "HepG2 cells; 5 μM CaspaGreen caspase substrate", "result": "increased nuclear staining"},
      {"measurement": "oxidative stress (Far Red ROS Sensor)", "setting": "HepG2 cells; 5 μM Far Red ROS Sensor", "result": "causes oxidative stress"}
    ]},
    {"smiles": "CCCCCCCCCCCCCC(=O)O[C@@H]1[C@@H](C)[C@@]2(O)[C@@H](C=C(CO)C[C@]3(O)C(=O)C(C)=C[C@@H]23)[C@@H]2C(C)(C)[C@]12OC(C)=O", "note": "[PMA, phorbol myristate acetate]", "values": [
      {"measurement": "ROS formation after treatment", "setting": "Live Jurkat cells", "result": "increase in ROS formation"}
    ]}
  ]
}
